Test system: PBMC (polyclonal gluten-specific T cells) of paediatric and adult CD patients
Assay: IFN-γ ELISpot of PBMC after 3 day oral wheat challenge (SFU, % of maximal peptide response, dominance scores, EC50; Examples 5-6)
Type: cell-based, human
Details: for IFN-γ ELISpot response: after oral wheat challenge; for Cross-reactive T cell response: following wheat challenge
[1] = patient G, 11-17 yrs, cut-off 10 SFU
[2] = patient H, 11-17 yrs, cut-off 10 SFU
[3] = patient ID not given, 11-17 yrs, cut-off 10 SFU
[4] = patient P, 11-17 yrs, cut-off 21.6 SFU
[5] = patient Q, 11-17 yrs, cut-off 10 SFU
[6] = patient U, H, 11-17 yrs, cut-off 10 SFU
[7] = patient V, 6-10 yrs, cut-off 10 SFU
[8] = patient Y, 6-10 yrs, cut-off 10 SFU
[9] = patient eleven, 6-10 yrs, cut-off 10 SFU
[10] = patient four, 3-5yrs, cut-off 10 SFU
[11] = patient seven, 6-10 yrs, cut-off 10.5 SFU
[12] = patient ten, 3-5yrs, cut-off 10 SFU
[13] = patient three, 6-10 yrs, cut-off 10.5 SFU
[14] = patient two, 3-5yrs, cut-off 10 SFU

LQPFPQPELPYPQPQ was tested, and the “IFN-γ ELISpot response” value (patient A, 11-17 yrs, cut-off 10 SFU) was 2.5 SFU, the “Significant response as percentage of maximal peptide SFU” value (from here on “Significant response as percentage”) (patient D, max peptide 30.5 SFU) was “+ (>70% = +)” and the “IFN-γ ELISpot response” value (patient E, H, 11-17 yrs, cut-off 10 SFU) was 152 SFU. The “Significant response as percentage” value (patient E, max peptide 224 SFU) was “′′′ (41-70% = ′′′)”, the “IFN-γ ELISpot response” value (patient F, 11-17 yrs, cut-off 10 SFU) was 166.5 SFU and the “Significant response as percentage” value (patient F, max peptide 178 SFU) was “+ (>70% = +)”. The “IFN-γ ELISpot response” value [1] was 10 SFU, the “Significant response as percentage” value (patient G, max peptide 15 SFU) was “′′′ (41-70% = ′′′)” and the “IFN-γ ELISpot response” value (patient H (HLA-DQ2.5 homozygote), 3-5yrs, cut-off 10 SFU) was 31 SFU. For the same sequence, the “IFN-γ ELISpot response” value [2] was 8 SFU, the “IFN-γ ELISpot response” value [3] was 66.5 SFU and the “Significant response as percentage” value (patient ID not given, max peptide 95 SFU) was “′′′ (41-70% = ′′′)”. For the same sequence, the “Significant response as percentage” value (patient J, max peptide 196 SFU) was “′′′ (41-70% = ′′′)”, the “Significant response as percentage” value (patient K, max peptide 53 SFU) was “′′ (21-40% = ′′)” and the “Significant response as percentage” value (patient M, max peptide 48 SFU) was “′′′ (41-70% = ′′′)”. For the same sequence, the “IFN-γ ELISpot response” value (patient N, 3-5yrs, cut-off 10 SFU) was 5.5 SFU, the “IFN-γ ELISpot response” value [4] was 41.5 SFU and the “Significant response as percentage” value (patient P, max peptide 64 SFU) was “′′′ (41-70% = ′′′)”. For the same sequence, the “IFN-γ ELISpot response” value [5] was 67.5 SFU, the “Significant response as percentage” value (patient Q, max peptide 97 SFU) was “′′′ (41-70% = ′′′)” and the “IFN-γ ELISpot response” value [6] was 45 SFU. For the same sequence, the “Significant response as percentage” value (patient U, max peptide 81 SFU) was “′′′ (41-70% = ′′′)”, the “IFN-γ ELISpot response” value [7] was 30 SFU and the “Significant response as percentage” value (patient V, max peptide 35 SFU) was “+ (>70% = +)”. For the same sequence, the “IFN-γ ELISpot response” value [8] was 10.5 SFU, the “Significant response as percentage” value (patient Y, max peptide 16 SFU) was “′′′ (41-70% = ′′′)” and the “Significant response as percentage” value (patient Z, max peptide 13 SFU) was “+ (>70% = +)”. For the same sequence, the “Significant response as percentage” value (patient eight, max peptide 12 SFU) was “+ (>70% = +)”, the “IFN-γ ELISpot response” value [9] was 57 SFU and the “Significant response as percentage” value (patient eleven, max peptide 57 SFU) was “+ (>70% = +)”. For the same sequence, the “Significant response as percentage” value (patient five, max peptide 48 SFU) was “+ (>70% = +)”, the “IFN-γ ELISpot response” value [10] was 40.5 SFU and the “Significant response as percentage” value (patient one, max peptide 16.5 SFU) was “+ (>70% = +)”. The “IFN-γ ELISpot response” value [11] was 8 SFU, the “IFN-γ ELISpot response” value (patient six, 3-5yrs, cut-off 10 SFU) was 13 SFU and the “Significant response as percentage” value (patient six, max peptide 13 SFU) was “+ (>70% = +)”. For the same sequence, the “IFN-γ ELISpot response” value [12] was 14 SFU, the “Significant response as percentage” value (patient ten, max peptide 14.5 SFU) was “+ (>70% = +)” and the “IFN-γ ELISpot response” value [13] was 99.5 SFU. The “IFN-γ ELISpot response” value (patient twelve, 11-17 yrs, cut-off 10 SFU) was 27 SFU, the “IFN-γ ELISpot response” value [14] was 29 SFU and the “Significant response as percentage” value (patient two, max peptide 60 SFU) was “′′′ (41-70% = ′′′)”.
With QLFPLPEQPFPQP the “Cross-reactive T cell response” value (subject A, 11-17yrs) was 2 SFU, the “Cross-reactive T cell response” value (subject D, 11-17yrs) was 2 SFU and the “Cross-reactive T cell response” value (subject E, 11-17yrs) was 2 SFU. For the same sequence, the “Cross-reactive T cell response” value (subject F, 11-17yrs) was 2 SFU, the “Cross-reactive T cell response” value (subject G, 11-17yrs) was 0 SFU and the “Cross-reactive T cell response” value (subject H) was 0 SFU. The “Cross-reactive T cell response” value (subject I (3-5yrs/6-10yrs part)) was 1 SFU, the “Significant response as a percentage of maximal peptide SFU” value (“Significant response as a percentage” for short) (subject J) was “′ (11-20% = ′)” and the “Cross-reactive T cell response” value (subject J (3-5yrs/6-10yrs part)) was 26 SFU. For the same sequence, the “Cross-reactive T cell response” value (subject K (3-5yrs/6-10yrs part)) was 5 SFU, the “Cross-reactive T cell response” value (subject P, 11-17yrs) was 11 SFU and the “Significant response as a percentage” value (subject Q, 11-17yrs) was “′ (11-20% = ′)”. For the same sequence, the “Cross-reactive T cell response” value (subject Q, 11-17yrs) was 13 SFU, the “Significant response as a percentage” value (subject T, 11-17yrs) was “′ (11-20% = ′)” and the “Cross-reactive T cell response” value (subject T, 11-17yrs) was 13 SFU. For the same sequence, the “Cross-reactive T cell response” value (subject U, 11-17yrs) was 9 SFU, the “Cross-reactive T cell response” value (subject V (3-5yrs/6-10yrs part)) was 4 SFU and the “Cross-reactive T cell response” value (subject W (3-5yrs/6-10yrs part)) was 4 SFU. For the same sequence, the “Cross-reactive T cell response” value (subject Y (3-5yrs/6-10yrs part)) was 2 SFU, the “Cross-reactive T cell response” value (subject five (3-5yrs/6-10yrs part)) was 7 SFU and the “Cross-reactive T cell response” value (subject nine, 11-17yrs) was 1 SFU. For the same sequence, the “Cross-reactive T cell response” value (subject seven (3-5yrs/6-10yrs part)) was 1 SFU, the “Cross-reactive T cell response” value (subject six (3-5yrs/6-10yrs part)) was 0 SFU and the “Significant response as a percentage” value (subject ten) was “+ (>70% = +)”. The “Cross-reactive T cell response” value (subject ten (3-5yrs/6-10yrs part)) was 14 SFU and the “Cross-reactive T cell response” value (subject two (3-5yrs/6-10yrs part)) was 3 SFU.
In the case of PQQPQQSFPQQQQPA, the “IFN-γ ELISpot response” value [1] is reported as 11 SFU, the “Significant response as percentage” value (patient G, max peptide 15 SFU) is reported as “+ (>70% = +)” and the “IFN-γ ELISpot response” value [2] is reported as 1 SFU. For the same sequence, the “IFN-γ ELISpot response” value [3] was 3 SFU, the “Significant response as percentage” value (patient K, max peptide 53 SFU) was “′′ (21-40% = ′′)” and the “IFN-γ ELISpot response” value [4] was 4 SFU. The “IFN-γ ELISpot response” value [5] was 1 SFU, the “IFN-γ ELISpot response” value [6] was 2 SFU and the “IFN-γ ELISpot response” value [7] was 10 SFU. For the same sequence, the “Significant response as percentage” value (patient V, max peptide 35 SFU) was “′′ (21-40% = ′′)”, the “IFN-γ ELISpot response” value [8] was 3 SFU and the “IFN-γ ELISpot response” value [9] was 0 SFU. For the same sequence, the “IFN-γ ELISpot response” value [10] was 0 SFU, the “IFN-γ ELISpot response” value [11] was 10 SFU and the “IFN-γ ELISpot response” value [12] was 7 SFU. For the same sequence, the “IFN-γ ELISpot response” value [13] was 1 SFU and the “IFN-γ ELISpot response” value [14] was 0 SFU.

Reference: patent US20170232083A1, “METHODS OF DIAGNOSIS AND TREATMENT OF CELIAC DISEASE IN CHILDREN” (priority 2014, published 2017)
